Each compound was assayed against T1, APOL1 (tet-inducible transgenic APOL1 T-REx-HEK293 cell lines) (Homo sapiens, UniProt O14791) (assay: MultiTox-Fluor Multiplex Cytotoxicity Assay for APOL1 inhibitor properties). Settings: APOL1 induced with 50 ng/mL tet, 24 hours with compound, ratio of dead to live cells, top concentration 10 μM; APOL1 variant (G0/G1/G2) not stated; read-out: IP50 (nM) (i.e., IC50 for cell proliferation).
T1 sequence (O14791 1-398 S342G/I384M): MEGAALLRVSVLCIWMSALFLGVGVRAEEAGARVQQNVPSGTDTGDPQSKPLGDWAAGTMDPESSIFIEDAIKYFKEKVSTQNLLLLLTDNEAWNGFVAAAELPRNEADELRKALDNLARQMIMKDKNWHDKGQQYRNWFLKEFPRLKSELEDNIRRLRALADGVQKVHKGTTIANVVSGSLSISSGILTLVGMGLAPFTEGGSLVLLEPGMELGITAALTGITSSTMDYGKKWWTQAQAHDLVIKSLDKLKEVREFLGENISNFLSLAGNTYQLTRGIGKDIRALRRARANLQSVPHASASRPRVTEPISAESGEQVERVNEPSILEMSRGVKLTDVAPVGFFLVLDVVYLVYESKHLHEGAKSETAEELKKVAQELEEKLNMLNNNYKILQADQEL
Format: cell-based
Experimental: The MultiTox-Fluor Multiplex Cytotoxicity Assay is a single-reagent-addition, homogeneous, fluorescence assay that measures the number of live and dead cells simultaneously in culture wells. The assay measures cell viability and cytotoxicity by detecting two distinct protease activities. The live-cell protease activity is restricted to intact viable cells and is measured using a fluorogenic, cell-permeant peptide glycyl-phenylalanylamino fluorocoumarin (GF-AFC) substrate. The substrate enters intact cells, where it is cleaved to generate a fluorescent signal proportional to the number of living cells. […] A second, cell-impermeant, fluorogenic peptide substrate (bis-AAF-R110 Substrate) is used to measure dead-cell protease that has been released from cells that have lost membrane integrity. A ratio of dead to live cells is used to normalize data.
Briefly, the tet-inducible transgenic APOL1 T-REx-HEK293 cell lines were incubated with 50 ng/mL tet to induce APOL1 in the presence of 3-(2-(4-fluorophenyl)-1H-indol-3-yl)-N-((3S,4R)-4-hydroxy-2-oxopyrrolidin-3-yl)propenamide at 10.03, 3.24, 1.13, 0.356, 0.129, 0.042, 0.129, 0.0045, 0.0015, 0.0005 μM in duplicate for 24 hours in a humidified 37° C. incubator. The MultiTox reagent was added to each well and placed back in the incubator for an additional 30 minutes. The plate was read on the EnVision plate reader. A ratio of dead to live cells was used to normalize, and data was imported, analyzed, and fit using Genedata Screener (Basel, Switzerland) software. Data was normalized using percent of control, no tet (100% viability), and 50 ng/mL tet treated (0% viability), and fit using Smart Fit. The reagents, methods, and complete protocol for the MultiTox assay are described below.
Human embryonic kidney (HEK293) cell lines containing a tet-inducible expression system (T-REx™; Invitrogen, Carlsbad, CA) and Adeno-associated virus site 1 pAAVS1-Puro-APOL1 G0 or pAAVS1-Puro-APOL1 G1 or pAAVS1-Puro-APOL1 G2 Clones G0 DC2.13, G1 DC3.25, and G2 DC4.44 were grown in a T-225 flask at ˜90% confluency in cell growth media (DMEM, 10% Tet-free FBS, 2 mM L-glutamine, 100 Units/mL penicillin-streptomycin, 5 μg/mL blasticidin S HCl, 1 μg/mL puromycin dihydrochloride). Cells were washed with DPBS and then trypsinized to dissociate from the flask. Media was used to quench the trypsin, cells were then pelleted at 200 g and resuspended in fresh cell assay media (DMEM, 2% Tet-free FBS, 2 mM L-glutamine, 100 Units/mL penicillin-streptomycin). Cells were counted and diluted to 1.17×10^6 cells/mL. 20 μL of cells (23,400/well) were dispensed in every well of a 384-well Poly-D-Lysine coated plate using the Multidrop dispenser. The plates were then incubated at room temperature for one hour.
Tetracycline is needed to induce APOL1 expression. 1 mg/mL tet stock in water was diluted to 250 ng/mL (5×) in cell assay media. 60 μL of cell assay media (no tet control) was dispensed in columns 1 and 24, and 60 μL of 5×tet in 384-PP-round bottom plate was dispensed in columns 2 to 23 with the Multidrop dispenser.
Assay ready plates from the Global Compound Archive were ordered using template 384_APOL1Cell_DR10n2_50 uM_v3. Compounds were dispensed at 200 nL in DMSO. The final top concentration was 10 μM with a 10 point 3-fold dilution in duplicate in the MultiTox assay.
20 μL was transferred from the 5×tet plate to the ARP and mixed, then 5 μL of 5×tet and the compounds were transferred to the cell plate and mixed using the Bravo. The cell plate was placed in the humidified 37° C. 5% CO2 incubator for 24 hours.
The MultiTox-Fluor Multiplex Cytotoxicity Assay was performed in accordance with the manufacturer's protocol. After cells were incubated with tet and compound for 24 hours, 25 μL of 1×MultiTox reagent was added to each well using the Multidrop dispenser; the plates were placed on a plate shaker (600 rpm) for 2 minutes, then centrifuged briefly and placed back in the 37° C. incubator for 30 minutes. […]
C[C@H]1C[C@@](O)(c2ccc(Cl)c(C(=O)N(C)C)c2)C[C@@H](c2cn(C)nn2)N1 [Compound 24] was tested, and the IC50 was 50 to 500 nM.
C[C@H]1C[C@@](O)(c2ccc3c(cnn3C)c2)C[C@@H](c2cn(C)nn2)N1 [Compound 56] showed an IC50 of no less than 500 nM.
C[C@H]1C[C@@](O)(c2ccc(Cl)c(F)c2)C[C@@H](c2cn(C)nn2)N1 [Compound 13] showed an IC50 of no more than 50 nM.
C[C@H]1C[C@@](O)(c2ccc(SC3CC3)cc2)C[C@@H](c2cn(C)nn2)N1 [Compound 49] showed an IC50 of 50 to 500 nM.
In the case of COc1cc([C@@]2(O)C[C@@H](c3cn(C)nn3)N[C@@H](C)C2)ccc1C(F)(F)F [Compound 28], the IC50 is reported as no more than 50 nM.
Compound C[C@H]1C[C@@](O)(c2ccc3cn(C)nc3c2)C[C@@H](c2cn(C)nn2)N1 [Compound 54] has an IC50 of no less than 500 nM.
C[C@H]1C[C@@](O)(c2ccc(C(F)F)cc2)C[C@@H](c2cn(C)nn2)N1 [Compound 38] showed an IC50 of no more than 50 nM.
C[C@H]1C[C@@](O)(c2ccc(C(F)(F)F)nc2)C[C@@H](c2cn(C)nn2)N1 [Compound 37] showed an IC50 of 50 to 500 nM.
Compound C[C@H]1C[C@@](O)(c2ccc(C(F)(F)F)c(F)c2)C[C@@H](c2cn(C)nn2)N1 [Compound 25] has an IC50 of no more than 50 nM.
With C[C@H]1C[C@@](O)(c2ccc(C(F)(F)F)c(C(F)(F)F)c2)C[C@@H](c2cn(C)nn2)N1 [Compound 51] the IC50 was no more than 50 nM.
Compound CC1CC(O)(c2ccc(C(F)(F)F)cc2)CC(c2c[nH]nn2)N1 (centres unmarked) [Compound 62, 2-methyl-6-(1H-triazol-4-yl)-4-[4-(trifluoromethyl)phenyl]piperidin-4-ol] has an IC50 of no more than 50 nM.
C[C@@H]1C[C@](O)(c2cccc(Cl)c2)C[C@H](C)N1 [Compound 1] gave an IC50 of no less than 500 nM.
In the case of Cc1cc([C@@]2(O)C[C@@H](c3cn(C)nn3)N[C@@H](C)C2)ccc1C(F)(F)F [Compound 34], the IC50 is reported as no more than 50 nM.
In the case of C[C@H]1C[C@@](O)(c2ccc(C(F)(F)F)cc2O)C[C@@H](c2cn(C)nn2)N1 [Compound 44], the IC50 is reported as 50 to 500 nM.
Work on C[C@H]1C[C@@](O)(c2cc(F)cc(Cl)c2)C[C@@H](c2cn(C)nn2)N1 [Compound 10] yielded an IC50 of 50 to 500 nM.
In the case of Cc1ccc([C@@]2(O)C[C@@H](c3cn(C)nn3)N[C@@H](C)C2)cc1F [Compound 11], the IC50 is reported as 50 to 500 nM.
With C[C@H]1C[C@@](C(N)=O)(c2ccc(C(F)(F)F)cc2)C[C@@H](c2cn(C)nn2)N1 [Compound 67, (2S,4S,6S)-2-methyl-6-(1-methyl-1H-1,2,3-triazol-4-yl)-4-(4-(trifluoromethyl)phenyl)piperidine-4-carboxamide] the IC50 was 50 to 500 nM.
Cc1nn(C)c2ccc([C@@]3(O)C[C@@H](c4cn(C)nn4)N[C@@H](C)C3)cc12 [Compound 59] was tested, and the IC50 was 50 to 500 nM.
In the case of CC1CC(O)(c2cccc(Cl)c2)CC(c2cnn(CCS(C)(=O)=O)c2)N1 (centres unmarked) [Compound 2], the IC50 is reported as 50 to 500 nM.
Compound COc1cc([C@]2(O)C[C@H](C)N(C)[C@H](c3cn(C)nn3)C2)ccc1C(F)(F)F [Compound 42] has an IC50 of 50 to 500 nM.
Compound C[C@H]1C[C@@](O)(c2ccc3c(c2)C2(CCO3)CC2)C[C@@H](c2cn(C)nn2)N1 [Compound 32] has an IC50 of 50 to 500 nM.
In the case of C[C@H]1C[C@@](O)(c2ccc(Cl)c(OC(F)(F)F)c2)C[C@@H](c2cn(C)nn2)N1 [Compound 23], the IC50 is reported as no more than 50 nM.
For C[C@H]1C[C@@](O)(c2ccc(Cl)cc2)C[C@@H](c2cn(C)nn2)N1 [Compound 4], the IC50 was no more than 50 nM.
C[C@H]1C[C@@](O)(c2ccc3c(c2)CC(C)(C)O3)C[C@@H](c2cn(C)nn2)N1 [Compound 31] showed an IC50 of no less than 500 nM.
With Cc1ccc([C@@]2(O)C[C@@H](c3cn(C)nn3)N[C@@H](C)C2)cc1 [Compound 5] the IC50 was 50 to 500 nM.
C[C@H]1C[C@@](O)(c2ccc(C(F)(F)F)cc2)C[C@@H](c2cn(C)nn2)N1 [Compound 16] was tested, and the IC50 was no more than 50 nM.
With Cc1cccc([C@@]2(O)C[C@@H](c3cn(C)nn3)N[C@@H](C)C2)c1 [Compound 6] the IC50 was 50 to 500 nM.
Work on CC(C)c1ccc([C@@]2(O)C[C@@H](c3cn(C)nn3)N[C@@H](C)C2)cc1 [Compound 8] yielded an IC50 of no more than 50 nM.
In the case of COc1cc([C@@]2(O)C[C@@H](c3cn(C)nn3)N[C@@H](C)C2)ccc1Cl [Compound 19], the IC50 is reported as no more than 50 nM.
C[C@H]1C[C@@](O)(c2ccc3nnn(C)c3c2)C[C@@H](c2cn(C)nn2)N1 [Compound 57] gave an IC50 of no less than 500 nM.
In the case of C[C@H]1C[C@@](O)(c2ccc3c(c2)CCC3(F)F)C[C@@H](c2cn(C)nn2)N1 [Compound 41], the IC50 is reported as less than 10000 nM.
In the case of C[C@H]1C[C@@](O)(c2ccc3c(c2)OC(F)(F)C3(F)F)C[C@@H](c2cn(C)nn2)N1 [Compound 40], the IC50 is reported as no more than 50 nM.
C[C@H]1C[C@@](O)(Cc2cccc(C(F)(F)F)c2)C[C@@H](c2cn(C)nn2)N1 [Compound 61, (2S,4S,6S)-2-methyl-6-(1-methyltriazol-4-yl)-4-[[3-(trifluoromethyl)phenyl]methyl]piperidin-4-ol] showed an IC50 of no less than 500 nM.
Compound C[C@H]1C[C@@](O)(c2ccc(Cl)cc2F)C[C@@H](c2cn(C)nn2)N1 [Compound 22] has an IC50 of no more than 50 nM.
C[C@H]1C[C@@](O)(CS(=O)(=O)c2ccc(Br)cc2)C[C@@H](c2cn(C)nn2)N1 [Compound 45] gave an IC50 of no less than 500 nM.
Compound C[C@H]1C[C@@](O)(c2cccc(C(F)(F)F)c2)C[C@@H](c2cn(C)nn2)N1 [Compound 48] has an IC50 of 50 to 500 nM.
With C[C@H]1C[C@@](CO)(c2ccc(C(F)(F)F)cc2)C[C@@H](c2cn(C)nn2)N1 [Compound 65, ((2S,4S,6S)-2-methyl-6-(1-methyl-1H-1,2,3-triazol-4-yl)-4-(4-(trifluoromethyl)phenyl)piperidin-4-yl)methanol] the IC50 was 50 to 500 nM.
C[C@H]1C[C@@](O)(c2ccc(F)cc2)C[C@@H](c2cn(C)nn2)N1 [Compound 15] was tested, and the IC50 was no less than 500 nM.
With Cc1cc([C@@]2(O)C[C@@H](c3cn(C)nn3)N[C@@H](C)C2)ccc1Cl [Compound 26] the IC50 was no more than 50 nM.
Cc1cc([C@@]2(O)C[C@@H](c3cn(C)nn3)N[C@@H](C)C2)ccc1F [Compound 12] was tested, and the IC50 was 50 to 500 nM.
C[C@H]1C[C@@](O)(c2ccc3cnn(C)c3c2)C[C@@H](c2cn(C)nn2)N1 [Compound 58] gave an IC50 of no more than 50 nM.
C[C@H]1C[C@@](O)(c2ccc(F)c(Cl)c2)C[C@@H](c2cn(C)nn2)N1 [Compound 9] gave an IC50 of 50 to 500 nM.
For C[C@H]1C[C@@](O)(c2ccc3c(c2)nnn3C)C[C@@H](c2cn(C)nn2)N1 [Compound 55], the IC50 was no less than 500 nM.
With Cc1cc(Cl)ccc1[C@@]1(O)C[C@@H](c2cn(C)nn2)N[C@@H](C)C1 [Compound 21] the IC50 was 50 to 500 nM.
With C[C@H]1C[C@@](O)(c2ccc(C(C)(F)F)cc2)C[C@@H](c2cn(C)nn2)N1 [Compound 39] the IC50 was no more than 50 nM.
C[C@H]1C[C@@](O)(c2ccc(C3CC3)cc2)C[C@@H](c2cn(C)nn2)N1 [Compound 29] gave an IC50 of no more than 50 nM.
C[C@H]1C[C@@](O)(c2ccc3c(c2)OCC3)C[C@@H](c2cn(C)nn2)N1 [Compound 53] gave an IC50 of no less than 500 nM.
